The values below come from patent publication US5770563A, “Heparin- and sulfatide binding peptides from the type I repeats of human thrombospondin and conjugates thereof” (The United States of America as represented by the …, priority 1995, dated 1998).

Square brackets hold non-standard residues; d marks the D form. Ends that are not written are not given here. Peptide text beside a SMILES is read from it. Mpa = O=C(O)CCS

Usually IC50 stands for the concentration at which inhibition is half-maximal.

In one series the test system is MDA MB435 tumor. Nature of the series: MDA MB435 orthotopic tumor growth in nude mice. It is filed as in vivo, mouse. Conditions: polysucrose/FICOLL conjugate, intravenous. As to the method:
Tumor cells were allowed to implant for approximately one to three weeks prior to administering the peptide analog or a polysucrose conjugate. […] The inhibitory effect persisted beyond the treatment period, although the growth of the tumors eventually resumed.
The presented experiment consisted of two groups of animals. The objective was to test a peptide conjugate for effects on breast carcinoma growth. The treated animals were injected with MDA435 cells alone on day one and then injected intravenously with drugs from day 10 through approximately day 30. Tumor growth and frequency of metastasis were determined in both groups.
NIH Nu/Nu mice, approximately eight weeks of age are injected with 10^5 MDA MB435 cells by the mammary fat pad route. Mice were anesthetized with 150-200 μl i.p. of a 1:80 dilution in PBS of a solution containing 25 g. tribromoethanol in 12.5 ml tertiary amyl alcohol. The mammary fat pad was cleaned with ethanol and a 10 mm incision was made directly above the site of injection. Mammary fat pad #4 could be observed beneath the skin after the incision was made. Using a 0.1 ml Hamilton syringe and 27 gauge 1/2" needle, 10 μl of cell suspension, 1×10^5 cells in HBSS, are injected into the fat pad. The incision is closed using 1-2 Autoclips ([…], Clay Adams). Autoclips are removed 7 days post-injection and scarring is minimal.
Six animals were injected for each condition, per experiment. Animals were earpunched after injection for subsequent identification. Beginning at day 10 and continuing every day until approximately day 30, the experimental animals were injected i.v. (tail vein) with 0.1 ml of the FICOLL conjugate. Primary tumor size was determined twice weekly by length×width×height measurement, and the animals are observed daily for general health. When the primary tumor of any animal exceeded 20 mm in any dimension, all of the animals were sacrificed. The presence of metastases was determined by gross autopsy and examination of H & E stained sections of any suspicious organ and step sections of the lungs and draining lymph nodes. The primary tumors were removed, stripped free of other tissues, and weighed. At any time during the experiment, animals suspected of being in distress were sacrificed and examined as above.

Another series concerns AIDS-KS lesion. Nature of the series: Kaposi's sarcoma angiogenic lesion formation in nude mice. Conditions: intravenous, nude mouse. It is filed as in vivo. On the procedure:
For determination of In vivo Angiogenesis, 2×10^6 AIDS-KS cells suspended in phosphate buffered saline without calcium and magnesium (PBS w/o), passage 6-8, were transplanted subcutaneously on day 0 of the flanks of male Balb/c nu/nu athymic mice. The animals were injected intravenously with increasing dilutions of TSP peptide-FICOLL conjugates or the equivalent concentrations of FICOLL mixed in PBS w/o as a control from days 1-5. On day 6 the angiogenic lesions were observed, measured, fixed in 10% formalin, and stained with hematoxylin-eosin.

In series [1] the test system is bovine corneal endothelial cells. Format: cell-based. As to the method: Corneal bovine endothelial cells (BCE cells) were used at passages 2 through 8 (Munjal et al., 1990). BCE cell cultures were maintained in DMEM (low glucose), containing 10% FCS, 4 mM glutamine, 2.5 μg/ml amphotericin B, and 500 U/ml each of penicillin G potassium and streptomycin sulfate (all media components were from Biofluids Inc., Rockville, Md.). BCE cells were grown at 34° in 5% CO2. The media were changed every 2-3 days.
(§1) Endothelial cell proliferation was measured using the CELL TITER 96™ assay (Promega, Madison, Wis.). 5×10^3 cells were plated into each well of a 96-well culture plate in 0.5 or 5% FCS-containing medium together with the indicated concentrations of growth effectors. After 72 h, 15 μl of dye solution was added to each well, and the plates were incubated for an additional 4 h. Solubilization solution was added, and absorbance at 570 nm was determined after 24 h as described by the manufacturer.

In series [2] the target is basic fibroblast growth factor (FGF-2) binding to heparin. The experiment in a line: Inhibition of 125I-bFGF binding to heparin-BSA conjugate. To be noted: retro-inverso peptides; read-out: IC50 for Inhibition of Binding. The essentials:
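Heparin-BSA conjugate immobilized in wells; 125I-bFGF added with test peptides and incubated 2 h at 25° C. Bound radioactivity counted after washing and cutting out wells; inhibition of binding derived from counts.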

The next series relates to bovine endothelial cells. Nature of the series: Inhibition of bovine endothelial cell proliferation (Table 7). Format: cell-based. Conditions: free peptide; read-out: IC50 Inhibitory Activity, Free Peptide. On the procedure:
Similar structure-function and epitope mapping studies were carried out with regard to inhibition of bovine endothelial cell proliferation. […] This may be due either to a lower tendency of the conjugates to stick to the microtiter wells or a greater tendency to disrupt binding of the cells to the substratum in the wells.
as §1

The subject of series [3] is MDA MB435 breast carcinoma cells. The experiment in a line: MDA MB435 human breast carcinoma cell proliferation. Conditions: free peptide. It is filed as cell-based. On the procedure: Human breast carcinoma cells MDA MB435 (American Type Culture Collection) were grown in RPMI 1640 medium containing 10% fetal calf serum. Proliferation was determined as described in FIG. 18 and 44A, B and C.
Human breast carcinoma cells MDA MB435 (American Type Culture Collection) were grown in RPMI 1640 medium containing 10% fetal calf serum. Proliferation was determined in the presence of 0.5% fetal calf serum and bFGF as described in FIG. 19.

In series [4] the target is thrombospondin binding to heparin. The experiment in a line: Inhibition of 125I-thrombospondin binding to immobilized heparin-BSA. Also on record: species or system human. The gist of the method:
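Solid-phase binding: heparin-BSA (0.2 μg/well) adsorbed 2 h at 37° in Dulbecco's PBS, blocked with tris-BSA. Peptides in 50 mM tris pH 7.8, NaCl, 1 mM CaCl2, 0.025% NaN3, 1% BSA mixed with 125I-thrombospondin (added at 0.2 μg/ml), 3 h at 4°; after saline washes, bound radioactivity counted.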

The next series in a line: Solubility. Format: physicochemical.
For series [5], the system named is A2058 melanoma cells. Nature of the series: 125I-thrombospondin binding to A2058 melanoma cells. Format: cell-based, human. Conditions: heparin. On the procedure: (§2) Melanoma cells (1×10^5 in 0.2 ml) were incubated with 0.2 μg/ml labeled laminin alone or in the presence of 200 micrograms per ml of peptides from SEQ ID NO:1, SEQ ID NO:2, or SEQ ID NO:3, type-I repeats from thrombospondin (FIG. 5A). Melanoma cells were also incubated with labelled laminin or thrombospondin alone or in the presence of 10 μg/ml of peptides from the first (184, SEQ ID NO:1), second (185, SEQ ID NO:2 and 246, SEQ ID NO:19), or third type I repeat of thrombospondin (186, SEQ ID NO:3) or 1 μg/ml heparin (FIG. 5B). The cells were centrifuged through oil to separate the free laminin from the bound laminin followed by quantifying the radioactivity in the cell pellet by a gamma counter. The results are presented in FIGS. 5A and B, as a percent of control binding determined in the absence of peptide and is the mean of triplicate determinations±the standard deviation.
(§3) Melanoma cells (3×10^5 cells in 0.2 ml) were incubated with 0.2 μg/ml of labelled I^125 -thrombospondin alone or in the presence of increasing concentrations of heparin or a peptide having the sequence according to SEQ ID NO:1 or a combination of the two inhibitors. […]
(§4) A2058 melanoma cells were harvested as described above and suspended in Dulbecco's PBS containing 1 mg/ml BSA. […] The supernatant fluid was aspirated, and the bottom of the tube was cut and counted.

The subject of series [6] is A2058 melanoma cells. Nature of the series: 125I-laminin binding to A2058 melanoma cells. It is filed as cell-based, human. Conditions: excess heparin. On the procedure:
as §2, §3, §4

As for “364f: KRFKQDGGWSHWSPWSSC conjugated to FICOLL, several preparations (also: conjugated to FICOLL) [Peptide 364f]”, in the series with MDA MB435 tumor, the tumor growth entry is on record as “delays tumor growth”. The AIDS-KS lesion formation result in the series on AIDS-KS lesion is on record as “strongly inhibited AIDS-KS lesion formation”.

As to `N=C(N)NCCC[C@H](NC(=O)[C@@H](N)CCCCN)C(=O)N[C@@H](Cc1ccccc1)C(=O)N[C@@H](CCCCN)C(=O)N[C@@H](CCC(N)=O)C(=O)N[C@@H](CC(=O)O)C(=O)NCC(=O)NCC(=O)N[C@@H](Cc1c[nH]c2ccccc12)C(=O)N[C@@H](CO)C(=O)N[C@@H](Cc1c[nH]cn1)C(=O)N[C@@H](Cc1c[nH]c2ccccc12)C(=O)N[C@@H](CO)C(=O)N1CCC[C@H]1C(=O)N[C@@H](Cc1c[nH]c2ccccc12)C(=O)N[C@@H](CO)C(=O)N[C@@H](CO)C(=O)O` [Peptide 246, KRFKQDGGWSHWSPWSS] (H-KRFKQDGGWSHWSPWSS-OH), the 50% inhibitory concentration (IC50) in [1] was 40 µM.

As for `C[C@@H](NC(=O)CCS)C(=O)N[C@H](C)C(=O)N[C@H](Cc1c[nH]c2ccccc12)C(=O)N[C@H](Cc1c[nH]cn1)C(=O)N[C@H](CO)C(=O)N[C@H](Cc1c[nH]c2ccccc12)C(=O)NCC(=O)NCC(=O)N[C@H](C)C(=O)N[C@H](CCC(N)=O)C(=O)N[C@H](CCCCN)C(=O)N[C@H](C)C(=O)N[C@H](CCCNC(=N)N)C(=O)N[C@H](CCCCN)C(N)=O` [Peptide 483, ri-amKRAKQAGGWSHWAAtp] ([Mpa][dA][dA][dW][dH][dS][dW]GG[dA][dQ][dK][dA][dR][dK]-NH2), the IC50 is greater than 20 µM in series [2]; 4 µM in the series with bovine endothelial cells; 0.13 µM in series [4] (retro-inverso peptides, free, read-out: IC50 Inhibitory Activity, Free Peptide). In addition, the “inhibition of MDA MB435 proliferation, in words” value in series [3] is “active”.

In the case of `CC(=O)N[C@@H](CCCCN)C(=O)N[C@@H](CCCNC(=N)N)C(=O)N[C@@H](C)C(=O)N[C@@H](CCCCN)C(=O)N[C@@H](C)C(=O)N[C@@H](C)C(=O)NCC(=O)NCC(=O)N[C@@H](Cc1c[nH]c2ccccc12)C(=O)N[C@@H](CO)C(=O)N[C@@H](Cc1c[nH]cn1)C(=O)N[C@@H](Cc1c[nH]c2ccccc12)C(=O)N[C@@H](C)C(=O)N[C@@H](CO)C(=O)N[C@@H](CS)C(N)=O` [acKRAKAAGGWSHWASCam] (Ac-KRAKAAGGWSHWASC-NH2), the solubility characteristics result in the series “Solubility” was “good activity and solubility characteristics”. For the same molecule, in [4] (free peptide), the “inhibition of thrombospondin binding to heparin, in words” value is recorded as “good activity”.

heparin [reference compound]: in the series with A2058 melanoma cells [5], the “inhibition of thrombospondin binding to A2058 melanoma cells by heparin” value is reported as “approximately 90%”. Besides, the “laminin binding resistant to inhibition” value in the series with A2058 melanoma cells [6] is listed as “approximately 50%”.
